Structures can show the parent of a compound that is named as a salt.

Results on 24 molecules are retold here after patent US10005767B2, “Compositions and methods for inhibition of the JAK pathway” (Rigel Pharmaceuticals, Inc., priority 2009, dated 2018).

The subject of one assay is human primary T-cells, IL-2 stimulated proliferation (JAK-1 and JAK-3 dependent; reported as JAK3 activity). The experiment in a line: Human primary T-cell proliferation stimulated by IL-2 (Example 3). The following applies: Homo sapiens, T-cell, tested under conditions described in Example 3 (IL-2 stimulated human primary T-cell proliferation); read-out: ability to inhibit JAK3 activity, IC50 range (Table V). In kind it is cell-based. In a few lines: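 Peripheral-blood human T-cells pre-activated via TCR/CD28, IL-2-starved overnight, then cultured 72 h at 37 °C with compound in Yssel's medium containing IL-2 (80 U/mL in cell suspension). Proliferation read as viable-cell ATP by CellTiter-Glo luminescence; reduction versus control taken as JAK pathway inhibition.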
Regarding `Cc1cnc(Nc2cccc(Br)c2)nc1Nc1ccc2oc(=O)[nH]c2c1` [Compound I-175, 5-[2-(3-Bromo-phenylamino)-5-methyl-pyrimidin-4-ylamino]-3H-benzooxazol-2-one], the concentration for half-maximal inhibition (IC50) (as a rule, the concentration that gives 50% inhibition) is less than 0.5 µM.

With `Cc1cnc(Nc2ccc(C(F)(F)F)cc2)nc1Nc1ccc2oc(=O)[nH]c2c1` [Compound I-160, 5-[5-Methyl-2-(4-trifluoromethyl-phenylamino)-pyrimidin-4-ylamino]-3H-benzooxazol-2-one], the IC50 was less than 0.5 µM.

As to `CCN(CC)C(C)c1cccc(Nc2ncc(C)c(Nc3ccc4oc(=O)[nH]c4c3)n2)c1` (stereo not drawn) [Compound I-216, 5-(2-(3-(1-(diethylamino)ethyl)phenylamino)-5-methylpyrimidin-4-ylamino)benzo[d]oxazol-2(3H)-one], the 50% inhibitory concentration (IC50) was less than 0.5 µM.

Regarding `Cc1cnc(Nc2ccc(N3CC4(C)CN(C)CC(C)(C3)C4)nc2)nc1Nc1ccc2oc(=O)[nH]c2c1` [II-117, 5-methyl-N4-(2-oxo-2,3-dihydro-1,3-benzoxazol-5-yl)-N2-[2-(1,3,5-trimethyl-3,7-diazabicyclo[3.3.1]nonan-7-yl)pyridin-5-yl]-2,4-pyrimidinediamine], the IC50 was less than 0.5 µM.

For `Cc1cnc(Nc2ccc(N3CCOCC3)nc2)nc1Nc1cc(F)c2oc(=O)[nH]c2c1` [II-76, 7-fluoro-5-(5-methyl-2-(6-morpholinopyridin-3-ylamino)pyrimidin-4-ylamino)benzo[d]oxazol-2(3H)-one], the IC50 was less than 0.5 µM.

On to `Cc1cnc(Nc2ccc(N3CCN(C(C)C)CC3)nc2)nc1Nc1ccc2oc(=O)[nH]c2c1` [II-136, N2-[2-(4-isopropylpiperazino)pyridin-5-yl]-5-methyl-N4-(2-oxo-2,3-dihydro-1,3-benzoxazol-5-yl)-2,4-pyrimidinediamine], for which the IC50 is less than 0.5 µM.

`Cc1cnc(Nc2cc(F)cc(Cl)c2)nc1Nc1ccc2oc(=O)[nH]c2c1` [Compound I-186, 5-[2-(3-Chloro-5-fluoro-phenylamino)-5-methyl-pyrimidin-4-ylamino]-3H-benzooxazol-2-one]: the IC50 was less than 0.5 µM.

As to `CC(=O)c1ccc(Nc2ncc(C)c(Nc3ccc4oc(=O)[nH]c4c3)n2)cc1` [Compound I-129, 5-[2-(4-Acetyl-phenylamino)-5-methyl-pyrimidin-4-ylamino]-3H-benzooxazol-2-one], the IC50 is less than 0.5 µM.

For the molecule `Cc1cnc(Nc2ccc(C(N)=O)c(Cl)c2)nc1Nc1ccc2oc(=O)[nH]c2c1` [Compound I-141, 2-Chloro-4-[5-methyl-4-(2-oxo-2,3-dihydro-benzooxazol-5-ylamino)-pyrimidin-2-ylamino]-benzamide trifluoroacetic acid salt], the 50% inhibitory concentration (IC50) is less than 0.5 µM.

For `CS(=O)(=O)Nc1ccc(Nc2ncc(F)c(Nc3ccc4[nH]c(=O)[nH]c4c3)n2)cc1` [Compound I-51, N2-(4-(methylsulfonylamino)phenyl)-N4-(1H-benzo[d]imidazol-2(3H)-on-5-yl)-5-fluoropyrimidine-2,4-diamine], the 50% inhibitory concentration (IC50) lay in the range of 0.5 to 5 µM.

As to `Cc1cnc(Nc2ccc(N3CCC(NC(=O)C4CC4)C3)nc2)nc1Nc1ccc2oc(=O)[nH]c2c1` (stereo not drawn) [II-101, N-(1-(5-(5-methyl-4-(2-oxo-2,3-dihydrobenzo[d]oxazol-5-ylamino)pyrimidin-2-ylamino)pyridin-2-yl)pyrrolidin-3-yl)cyclopropanecarboxamide], the half-inhibitory concentration (IC50) is less than 0.5 µM.

For `COc1c(F)ccc(Nc2ncc(C)c(Nc3cc(F)c4oc(=O)[nH]c4c3)n2)c1F` [Compound I-508, 5-(2-(2,4-difluoro-3-methoxyphenylamino)-5-methylpyrimidin-4-ylamino)-7-fluorobenzo[d]oxazol-2(3H)-one], the IC50 was less than 0.5 µM.

Take `COc1cc(Nc2ncc(C)c(Nc3ccc4oc(=O)[nH]c4c3)n2)ccc1-c1ccncc1` [Compound I-494, 5-(2-(3-methoxy-4-(pyridin-4-yl)phenylamino)-5-methylpyrimidin-4-ylamino)benzo[d]oxazol-2(3H)-one formate salt]: the half-inhibitory concentration (IC50) was 0.5 to 5 µM.

`Cc1cnc(Nc2ccc(C(C)C)cc2)nc1Nc1ccc2oc(=O)[nH]c2c1` [Compound I-419, 5-(2-(4-isopropylphenylamino)-5-methylpyrimidin-4-ylamino)benzo[d]oxazol-2(3H)-one]: the concentration for half-maximal inhibition (IC50) is less than 0.5 µM.

The same assay, now with this note: tested under conditions described in Example 3 (IL-2 stimulated human primary T-cell proliferation); read-out: ability to inhibit JAK3 activity, IC50 range (Table V).
As to `Cc1cnc(Nc2cccc(S(=O)(=O)C(F)(F)F)c2)nc1Nc1ccc2oc(=O)[nH]c2c1` [Compound I-118, N4-(benzo[d]oxazol-2(3H)-on-5-yl)-N2-(3-trifluoromethylsulfonyl)phenyl-5-methylpyrimidine-2,4-diamine], the IC50 was less than 0.5 µM.

For `Cc1cnc(Nc2cnc(N3CCN4CCC[C@H]4C3)c(F)c2)nc1Nc1ccc2oc(=O)[nH]c2c1` [II-112, N4-(benzo[d]oxazolin-2(3H)-one-5-yl)-N2-{2-[(8S)-1,4-diazabicyclo[4.3.0]nonane-1-yl]-3-fluoropyridine-5-yl}-5-methyl-2,4-pyrimidinediamine], the IC50 is less than 0.5 µM.

Turning to `Cc1cnc(Nc2ccc(F)c(F)c2)nc1Nc1ccc2oc(=O)[nH]c2c1` [Compound I-398, N2-(3,4-difluoro)phenyl-5-methyl-N4-(2-oxo-2,3-dihydro-1,3-benzoxazol-5-yl)-2,4-pyrimidinediamine], the IC50 is less than 0.5 µM.

Turning to `COc1ccc(Nc2ncc(C)c(Nc3ccc4oc(=O)[nH]c4c3)n2)cc1F` [Compound I-350, N2-(3-fluoro-4-methoxy)phenyl-5-methyl-N4-(2-oxo-2,3-dihydro-1,3-benzoxazol-5-yl)-2,4-pyrimidinediamine], the IC50 is less than 0.5 µM.

`Cc1cnc(Nc2cccc(S(N)(=O)=O)c2)nc1Nc1ccc2c(c1)n(C)c(=O)n2C` [Compound I-34, N4-(1,3-dimethylbenzimidazolin-2-on-5-yl)-N2-((3-aminosulfonyl)phenyl)-5-methylpyrimidine-2,4-diamine]: the half-maximal inhibitory concentration (IC50) was less than 0.5 µM.

`COc1ccc(Nc2ncc(C)c(Nc3ccc4oc(=O)[nH]c4c3)n2)cc1OCc1ccncc1` [Compound I-298, N2-{4-methoxy-3-[(pyridin-4-yl)methoxy]}phenyl-5-methyl-N4-(2-oxo-2,3-dihydro-1,3-benzoxazol-5-yl)-2,4-pyrimidinediamine]: the concentration for half-maximal inhibition (IC50) was less than 0.5 µM.

Take `Cc1cnc(Nc2ccc(F)c(C(F)(F)F)c2)nc1Nc1ccc2oc(=O)[nH]c2c1` [Compound I-361, N2-(4-fluoro-3-trifluoromethyl)phenyl-5-methyl-N4-(2-oxo-2,3-dihydro-1,3-benzoxazol-5-yl)-2,4-pyrimidinediamine]: the IC50 was less than 0.5 µM.

As to `Cc1cnc(Nc2cc(F)cc(OC(C)(C)C#N)c2)nc1Nc1ccc2oc(=O)[nH]c2c1` [Compound I-416, N2-[3-(1-cyano-1-methyl)ethoxy-5-fluoro]phenyl-5-methyl-N4-(2-oxo-2,3-dihydro-1,3-benzoxazol-5-yl)-2,4-pyrimidinediamine], the IC50 was less than 0.5 µM.

`Cc1cnc(Nc2ccc(C(=O)NC3CCC3)cc2)nc1Nc1ccc2oc(=O)n(COP(=O)(OC(C)(C)C)OC(C)(C)C)c2c1` [Compound I-152, di-tert-butyl(5-(2-(4-(cyclobutylcarbamoyl)phenylamino)-5-methylpyrimidin-4-ylamino)-2-oxobenzo[d]oxazol-3(2H)-yl)methyl phosphate]: the IC50 was in the range of 0.5 to 5 µM.

For the molecule `O=c1[nH]c2ccc(Nc3nc(Nc4ccc(N5CCOCC5)nc4)ncc3F)cc2[nH]1` [II-19, N4-(benzimidazolin-2-on-5-yl)-N2-((2-morpholinyl)pyridin-5-yl)-5-fluoropyrimidine-2,4-diamine], the IC50 was less than 0.5 µM.
